Measured values reported in publication PMC9848300, “Discovery of novel enasidenib analogues targeting inhibition of mutant isocitrate dehydrogenase 2 as antileukaemic agents” (Journal of Enzyme Inhibition and Medicinal Chemistry, 2023).

Experiments:
Format in all cases: cell-based
[1] = tested on: SNB-19; experiment: NCI 60 antitumor screening (single dose); conditions: Homo sapiens; SNB-19 (CNS cancer), single dose 10 μM; read-out: Growth inhibition percentage (GI %)
Experimental: (§1) Initially, the anticancer effects of target compounds have been assessed at a single (10 μM) dose. The obtained data have been reported as mean-graph of the percent growth (G%) of the treated cancer cells. Percentage growth inhibition (GI%) is calculated (100 − G%) and pronounced in Table 1. […] Target compounds in series (III) with manipulated linkers disclosed lower potency. Superiorly, eight s-triazine derivatives from the three series (6a, 6c, 6d, 7a, 7g, 7i, 7l, and 8b) have shown potent broad-spectrum anticancer activity against most the examined cell lines, whereas most of the remaining triazine derivatives, 20 derivatives, have exerted selective anti-proliferative actions towards certain cancer cell lines (Supplementary).
(§2) The antitumor screening was performed for 60 human cancer cell lines under the protocol of NCI (www.dtp.nci.nih.gov), the Drug Evaluation Branch, Bethesda, MD. All submitted compounds were nominated based on the degree of structural diversity and computer modelling techniques for evaluation of their anticancer activity. The screening process for antineoplastic activity passes through two successive levels, starting with the assessment of target compounds at a single dose of 10 μM against 60 cancer cell lines on nine types of human tumours. These experiments were done on a triplicate following. The output from the single‐dose screening was covered as a mean graph, and then, analysed by the COMPARE program. Finally, the compounds which disclosed subpanel cancer cell growth (G %) equal to or less than 10% in at least eight cancer cell lines get to pass the assessment against the 60 cell lines at five doses (0.01–100 μM). By using GraphPad Prism version 9.0 (Graphpad Software Inc., La Jolla, CA), GI50, TGI, as well as LC50 dose‐response parameters were computed and presented for each compound (Supplementary information)[55–57].

[2] = tested on: NCI-H522; experiment: NCI 60 antitumor screening (single dose); conditions: Homo sapiens; NCI-H522 (non-small cell lung cancer), single dose 10 μM; read-out: Growth inhibition percentage (GI %)
Experimental: as §1, §2

[3] = tested on: OVCAR-5; experiment: NCI 60 antitumor screening (single dose); conditions: Homo sapiens; OVCAR-5 (ovarian cancer), single dose 10 μM; read-out: Growth inhibition percentage (GI %)
Experimental: as §1, §2

[4] = tested on: MCF7; experiment: NCI 60 antitumor screening (single dose); conditions: Homo sapiens; MCF7 (breast cancer), single dose 10 μM; read-out: Growth inhibition percentage (GI %)
Experimental: as §1, §2

[5] = tested on: U251; experiment: NCI 60 antitumor screening (single dose); conditions: Homo sapiens, U-251; U251 (CNS cancer), single dose 10 μM; read-out: Growth inhibition percentage (GI %)
Experimental: as §1, §2

[6] = tested on: NCI-H226; experiment: NCI 60 antitumor screening (single dose); conditions: Homo sapiens; NCI-H226 (non-small cell lung cancer), single dose 10 μM; read-out: Growth inhibition percentage (GI %)
Experimental: as §1, §2

[7] = tested on: KM 12; experiment: NCI 60 antitumor screening (single dose); conditions: Homo sapiens, KM12; KM 12 (colon cancer), single dose 10 μM; read-out: Growth inhibition percentage (GI %)
Experimental: as §1, §2

[8] = tested on: HOP-62; experiment: NCI 60 antitumor screening (single dose); conditions: Homo sapiens; HOP-62 (non-small cell lung cancer), single dose 10 μM; read-out: Growth inhibition percentage (GI %)
Experimental: as §1, §2

[9] = tested on: HS 578T; experiment: NCI 60 antitumor screening (single dose); conditions: Homo sapiens; HS 578T (breast cancer), single dose 10 μM; read-out: Growth inhibition percentage (GI %)
Experimental: as §1, §2

[10] = tested on: CAKI-1; experiment: NCI 60 antitumor screening (single dose); conditions: Homo sapiens; CAKI-1 (renal cancer), single dose 10 μM; read-out: Growth inhibition percentage (GI %)
Experimental: as §1, §2

[11] = tested on: SK-OV-3; experiment: NCI 60 antitumor screening (single dose); conditions: Homo sapiens; SK-OV-3 (ovarian cancer), single dose 10 μM; read-out: Growth inhibition percentage (GI %)
Experimental: as §1, §2

[12] = tested on: OVCAR-4; experiment: NCI 60 antitumor screening (single dose); conditions: Homo sapiens; OVCAR-4 (ovarian cancer), single dose 10 μM; read-out: Growth inhibition percentage (GI %)
Experimental: as §1, §2

[13] = tested on: PC-3; experiment: NCI 60 antitumor screening (single dose); conditions: Homo sapiens; PC-3 (prostate cancer), single dose 10 μM; read-out: Growth inhibition percentage (GI %)
Experimental: as §1, §2

[14] = tested on: NCI-H322M; experiment: NCI 60 antitumor screening (single dose); conditions: Homo sapiens; NCI-H322M (non-small cell lung cancer), single dose 10 μM; read-out: Growth inhibition percentage (GI %)
Experimental: as §1, §2

[15] = tested on: TK-10; experiment: NCI 60 antitumor screening (single dose); conditions: Homo sapiens; TK-10 (renal cancer), single dose 10 μM; read-out: Growth inhibition percentage (GI %)
Experimental: as §1, §2

[16] = tested on: OVCAR-8; experiment: NCI 60 antitumor screening (single dose); conditions: Homo sapiens; OVCAR-8 (ovarian cancer), single dose 10 μM; read-out: Growth inhibition percentage (GI %)
Experimental: as §1, §2

[17] = tested on: A549/ATCC; experiment: NCI 60 antitumor screening (single dose); conditions: Homo sapiens; A549/ATCC (non-small cell lung cancer), single dose 10 μM; read-out: Growth inhibition percentage (GI %)
Experimental: as §1, §2

[18] = tested on: HCC-2998; experiment: NCI 60 antitumor screening (single dose); conditions: Homo sapiens; HCC-2998 (colon cancer), single dose 10 μM; read-out: Growth inhibition percentage (GI %)
Experimental: as §1, §2

[19] = tested on: NCI-H23; experiment: NCI 60 antitumor screening (single dose); conditions: Homo sapiens; NCI-H23 (non-small cell lung cancer), single dose 10 μM; read-out: Growth inhibition percentage (GI %)
Experimental: as §1, §2

[20] = tested on: HCT-116; experiment: NCI 60 antitumor screening (single dose / five doses); conditions: Homo sapiens; HCT-116 (colon cancer), single dose 10 μM; read-out: Growth inhibition percentage (GI %)
[21] = tested on: NCI/ADR-RES; experiment: as above; conditions: Homo sapiens; NCI/ADR-RES (ovarian cancer), single dose 10 μM; read-out: Growth inhibition percentage (GI %)
[22] = tested on: DU-145; experiment: as above; conditions: Homo sapiens; DU-145 (prostate cancer), single dose 10 μM; read-out: Growth inhibition percentage (GI %)
[23] = tested on: BT-549; experiment: as above; conditions: Homo sapiens; BT-549 (breast cancer), single dose 10 μM; read-out: Growth inhibition percentage (GI %)
[24] = tested on: T-47D; experiment: as above; conditions: Homo sapiens, T47D; T-47D (breast cancer), single dose 10 μM; read-out: Growth inhibition percentage (GI %)
[25] = tested on: SNB-75; experiment: as above; conditions: Homo sapiens; SNB-75 (CNS cancer), single dose 10 μM; read-out: Growth inhibition percentage (GI %)
[26] = tested on: LOX IMVI; experiment: as above; conditions: Homo sapiens; LOX IMVI (melanoma), single dose 10 μM; read-out: Growth inhibition percentage (GI %)

SMILES	inhibition at 10 µM [1] [%]	inhibition at 10 µM [2] [%]	inhibition at 10 µM [3] [%]	inhibition at 10 µM [4] [%]	inhibition at 10 µM [5] [%]	inhibition at 10 µM [6] [%]	inhibition at 10 µM [7] [%]	inhibition at 10 µM [8] [%]	inhibition at 10 µM [9] [%]	inhibition at 10 µM [10] [%]	inhibition at 10 µM [11] [%]	inhibition at 10 µM [12] [%]	inhibition at 10 µM [13] [%]	inhibition at 10 µM [14] [%]	inhibition at 10 µM [15] [%]	inhibition at 10 µM [16] [%]	inhibition at 10 µM [17] [%]	inhibition at 10 µM [18] [%]	inhibition at 10 µM [19] [%]	inhibition at 10 µM [20] [%]	other results
Brc1ccccc1/C=N/Nc1nc(N/N=C/c2ccccc2Br)nc(N2CCOCC2)n1 [compound 6b, 2,4-Bis[(E)-2-[(2-bromophenyl)methylidene]hydrazin-1-yl]-6-(morpholin-4-yl)-1,3,5-triazine]	-1.04	13.4	-11.2	14.8	3.53	4.87	10.9	-8.36	-14.4	-8.66	-13.9	3.79	16	3.22	0.58	3.39	2.89	29.1	-4.52	2.53	inhibition at 10 µM [21]: 8.51%; inhibition at 10 µM [22]: 1.72%; inhibition at 10 µM [23]: -6.54%; inhibition at 10 µM [24]: 21%; inhibition at 10 µM [25]: -31.7%; inhibition at 10 µM [26]: -2.7%
Brc1cccc(/C=N/Nc2nc(N/N=C/c3cccc(Br)c3)nc(N3CCCCC3)n2)c1 [compound 7c, 2,4-Bis[(E)-2-[(3-Bromophenyl)methylidene]hydrazin-1-yl]-6-(piperidin-1-yl)-1,3,5-triazine]	-2.24	8.55	-15.9	20.2	3.1	8.12	-6.72	-8.46	-21.2	0.79	-9	11.6	19.8	-3.53	-27.6	2.62	10.6	-2.01	-5.83	13.5	inhibition at 10 µM [21]: 9.29%; inhibition at 10 µM [22]: -1.2%; inhibition at 10 µM [23]: -13.1%; inhibition at 10 µM [24]: 12.3%; inhibition at 10 µM [25]: -17.3%; inhibition at 10 µM [26]: -5.74%
Fc1cccc(/C=N/Nc2nc(N/N=C/c3cccc(F)c3)nc(N3CCCCC3)n2)c1 [compound 7e, 2,4-Bis[(E)-2-[(3-Fluorophenyl)methylidene]hydrazin-1-yl]-6-(piperidin-1-yl)-1,3,5-triazine]	3.96	8.08	-8.1	26.7	5.46	17.9	17.9	-7.48	-13.2	9.66	-14.6	13.7	31.4	-8.36	-20.6	14.6	10.6	0.77	9.62	9.65	inhibition at 10 µM [21]: 23.9%; inhibition at 10 µM [22]: 2.92%; inhibition at 10 µM [23]: -5.92%; inhibition at 10 µM [24]: 30.6%; inhibition at 10 µM [25]: -14.6%; inhibition at 10 µM [26]: 14.2%
COC(=O)C(Cc1ccccc1)Nc1nc(NC(Cc2ccccc2)C(=O)OC)nc(N2CCOCC2)n1 (centres unmarked) [compound 8c, Methyl 2-({4-[(1-methoxy-1-oxo-3-phenylpropan-2-yl)amino]-6-(morpholin-4-yl)-1,3,5-triazin-2-yl}amino)-3-phenylpropanoate]	-3.58	9.02	-6.25	2.21	-5.23	-1.61	0.3	2.66	-1.3	13.2	-2.71	-6.53	-2.72	2.57	-3.4	0.4	-8.33	-9.86	-6.51	0.81	inhibition at 10 µM [21]: -10.6%; inhibition at 10 µM [22]: -11.6%; inhibition at 10 µM [23]: -11.7%; inhibition at 10 µM [24]: -0.53%; inhibition at 10 µM [25]: 9.51%; inhibition at 10 µM [26]: -5.03%
